We go through 46 compounds from patent US8551984B2, “Aminopyrimidines as SYK inhibitors” (Merck Sharp & Dohme Corp., priority 2009, dated 2013).

Molecules are shown by their SMILES.

The target in the first test is rhSYK (Homo sapiens, UniProt P43405). The following applies: read-out: rhSYK Activity; Table 117.
For the compound `Cc1cc(Nc2nccc(C(F)(F)F)n2)cc(-c2cnc(C3(O)CCC(CC(N)=O)CC3)s2)c1` (stereo not shown) [Example 117-9], the IC50 was below 100 nM.
Regarding `Cc1cc(Nc2nccc(C(F)(F)F)n2)cc(-c2cnc(C3(O)CCC(CC(N)=O)CC3)s2)c1` (stereo not shown) [Example 117-10], the IC50 is below 100 nM.

The test is the same for the next values; noted with them: read-out: rhSYK Activity; Table 119; two symbols in a cell = one per listed form.
Take `Cc1cc(Nc2nccc(C(C)C)n2)cc(-c2cnc(C3(O)CCC(C(N)=O)C(C)C3)s2)c1` (stereo not shown) [Example 119-11]: the IC50 is below 100 nM.
Turning to `COc1ccnc(Nc2cc(C)cc(-c3cnc(C4(O)CCC(C(N)=O)C(C)(C)C4)s3)c2)n1` (stereo not shown) [Example 119-13], the IC50 is below 100 nM.
Still for that read-out and setting: the value for `Cc1cc(Nc2nccc(C(C)O)n2)cc(-c2cnc(C3(O)CCC(C(N)=O)C(C)(C)C3)s2)c1` (stereo not shown) [Example 119-121] was below 100 nM; that for `Cc1cc(Nc2nccc(C(C)F)n2)cc(-c2cnc(C3(O)CCC(C(N)=O)C(C)(C)C3)s2)c1` (stereo not shown) [Example 119-123] was below 100 nM; that for `Cc1cc(Nc2nccc(OC(C)C)n2)cc(-c2cnc(C3(O)CCC(C(N)=O)C(C)(C)C3)s2)c1` (stereo not shown) [Example 119-126] was below 100 nM.
Still for that read-out and setting: the value for `Cc1cc(Nc2nccc(C(F)(F)F)n2)cc(-c2cnc(C3(O)CCC(C(N)=O)C(C)(C)C3)s2)c1` (stereo not shown) [Example 119-132] was below 100 nM.

The same test, now with this note: read-out: rhSYK Activity; class symbol; where two forms are listed, one symbol per form.
`Cc1cc(Nc2nccc(C(F)(F)F)n2)cc(-c2cnc(C3(O)CCC(CN)CC3)s2)c1` (stereo not shown) [Example 4C-4]: the IC50 is below 100 nM.
On the same count and under the same terms, the value for `Cc1cc(Nc2nccc(C(F)(F)F)n2)cc(-c2cnc([C@]3(O)CC[C@H](CO)CC3)s2)c1` [Example 4C-6] was below 100 nM; that for `Cc1cc(Nc2nccc(C(F)(F)F)n2)cc(-c2cnc(C3(O)CCC(CO)CC3)s2)c1` (stereo not shown) [Example 4C-7] was below 100 nM; that for `Cc1cc(Nc2nccc(C(F)(F)F)n2)cc(-c2cnc([C@]3(O)CC[C@@H](CO)CC3)s2)c1` [Example 4C-8] was below 100 nM.
On the same count and under the same terms, the value for `Cc1cc(Nc2nccc(C(F)(F)F)n2)cc(-c2cnc([C@]3(O)CC[C@@H](CC(=O)O)CC3)s2)c1` [Example 4C-14] was below 100 nM; that for `Cc1cc(Nc2nccc(C(F)(F)F)n2)cc(-c2cnc([C@]3(O)CC[C@H](CC(=O)O)CC3)s2)c1` [Example 4C-15] was below 100 nM; that for `CCOC(=O)C1CCCC(O)(c2ncc(-c3cc(C)cc(Nc4nccc(C(F)(F)F)n4)c3)s2)C1` (stereo not shown) [Example 4C-21] was 100 to 1000 nM.
Regarding `COC(=O)C1CCC(O)(c2ncc(-c3cc(C)cc(Nc4nccc(C(F)(F)F)n4)c3)s2)CC1C(C)C` (stereo not shown) [Example 4C-25], the IC50 was in the range of 100 to 1000 nM.
Same read-out and setting: the value for `Cc1cc(Nc2nccc(C(F)(F)F)n2)cc(-c2cnc(C3(O)CCC(CC(C)(C)C(=O)O)CC3)s2)c1` (stereo not shown) [Example 4C-26] was below 100 nM; that for `Cc1cc(Nc2nccc(C(F)(F)F)n2)cc(-c2cnc([C@]3(O)CC[C@@H](NC(=O)Cn4ccnc4)CC3)s2)c1` [Example 4C-29] was below 100 nM; that for `Cc1cc(Nc2nccc(C(F)(F)F)n2)cc(-c2cnc(C3(O)CCC(NC(=O)C4CCC(=O)O4)CC3)s2)c1` (stereo not shown) [Example 4C-30] was below 100 nM.
Still for that read-out and setting: the value for `Cc1cc(Nc2nccc(C(F)(F)F)n2)cc(-c2cnc(C3(O)CCC(NC(=O)C4CCC(=O)O4)CC3)s2)c1` (stereo not shown) [Example 4C-31] was below 100 nM; that for `Cc1cc(Nc2nccc(C(F)(F)F)n2)cc(-c2cnc([C@]3(O)CC[C@@H](NC(=O)Cc4ccccn4)CC3)s2)c1` [Example 4C-32] was below 100 nM.
Still for that read-out and setting: the value for `OC(c1ncc(-c2cccc(Nc3nccc(C(F)(F)F)n3)c2)s1)C(F)(F)F` (stereo not shown) [Example 6-2] was below 100 nM; that for `CCOC(=O)C(O)(c1ncc(-c2cc(C)cc(Nc3nccc(C(F)(F)F)n3)c2)s1)C(F)(F)F` (stereo not shown) [Example 6-6] was below 100 nM.
As to `Cc1cc(Nc2nccc(C(F)(F)F)n2)cc(-c2cnc(C(O)(CO)C(F)(F)F)s2)c1` (stereo not shown) [Example 6-7], the IC50 was below 100 nM.
In the case of `Cc1cc(Nc2nccc(C(F)(F)F)n2)cc(-c2cnc(C(C)(O)c3ccc(C(C)O)cc3)s2)c1` (stereo not shown) [Example 8B-4], the IC50 was below 100 nM.

Still in this test, the particulars now being: read-out: rhSYK activity; class symbol given.
Take `Cc1cc(Nc2nccc(C(F)(F)F)n2)cc(-c2cnc([C@]3(O)CC[C@@H](O)CC3)s2)c1` [Example 8(1), cis-1-[5-(3-methyl-5-{[4-(trifluoromethyl)pyrimidin-2-yl]amino}phenyl)-1,3-thiazol-2-yl]-cyclohexane-1,4-diol]: the IC50 was below 100 nM.
Turning to `Cc1cc(Nc2nccc(C(F)(F)F)n2)cc(-c2cnc([C@]3(O)CC[C@](C)(O)CC3)s2)c1` [Example 9(1), trans-1-methyl-4-[5-(3-methyl-5-{[4-(trifluoromethyl)pyrimidin-2-yl]amino}phenyl)-1,3-thiazol-2-yl]cyclohexane-1,4-diol], the IC50 is below 100 nM.
The same measure, in the same setting: the value for `Cc1cc(Nc2nccc(C(F)(F)F)n2)cc(-c2cnc(C3(O)CCN(C(=O)OC(C)(C)C)CC3)s2)c1` [Example 45, tert-butyl-4-hydroxy-4-[5-(3-methyl-5-{[4-(trifluoromethyl)pyrimidin-2-yl]amino}phenyl)-1,3-thiazol-2-yl]piperidine-1-carboxylate] was 100 to 1000 nM.
On the same count and under the same terms, the value for `Cc1cc(Nc2nccc(C(F)(F)F)n2)cc(-c2cnc(C3(NS(=O)(=O)C(C)(C)C)COC3)s2)c1` [Example 61, 2-methyl-N-{3-[5-(3-methyl-5-{[4-(trifluoromethyl)pyrimidin-2-yl]amino}phenyl)-1,3-thiazol-2-yl]oxetan-3-yl}propane-2-sulfonamide] was below 100 nM; that for `CC(=O)NC1(c2ncc(-c3cc(C)cc(Nc4nccc(C(F)(F)F)n4)c3)s2)CCC1` [Example 66, N-{1-[5-(3-methyl-5-{[4-(trifluoromethyl)pyrimidin-2-yl]amino}phenyl)-1,3-thiazol-2-yl]cyclobutyl}acetamide] was below 100 nM.

The target of a further test is recombinant human SYK (GST-hSYK fusion protein) (Homo sapiens, UniProt P43405). The following applies: read-out: rhSYK Activity (IC50); recombinant human GST-SYK 5 pM, ATP 25 μM, biotinylated substrate peptide 250 nM, HTRF, 10-dose titration.
Source text: Homogeneous Time-Resolved Fluorescence (HTRF) Assay for the Recombinant Human SYK Enzyme:
With `Cc1cc(Nc2nccc(C(F)(F)F)n2)cc(-c2cnc([C@]3(O)CCC(=O)NC[C@H]3O)s2)c1` (relative stereo) [161(A), [cis]5,6-dihydroxy-5-[5-(3-methyl-5-{[4-(trifluoromethyl)pyrimidin-2-yl]amino}phenyl)-1,3-thiazol-2-yl]azepan-2-one], the IC50 was below 100 nM.
Same read-out and setting: the value for `Cc1cc(Nc2nccc(C(F)(F)F)n2)cc(-c2cnc(C3CCC(C(N)=O)C(C)(C)C3)s2)c1` (single isomer, unassigned) [154(b), 2,2-Dim ethyl-4-[5-(3-methyl-5-{[4-(trifluoromethyl)pyrimidin-2-yl]amino}phenyl)-1,3-thiazol-2-yl]cyclohexanecarboxamide] was below 100 nM; that for `Cc1cc(Nc2nccc(C(F)(F)F)n2)cc(-c2cnc(C3CCC(C(N)=O)C(C)(C)C3)s2)c1` (single isomer, unassigned) [154(c), 2,2-Dim ethyl-4-[5-(3-methyl-5-{[4-(trifluoromethyl)pyrimidin-2-yl]amino}phenyl)-1,3-thiazol-2-yl]cyclohexanecarboxamide] was below 100 nM; that for `Cc1cc(Nc2nccc(C(F)(F)F)n2)cc(-c2cnc(C3CCC(C(N)=O)C(C)(C)C3)s2)c1` (single isomer, unassigned) [154(d), 2,2-Dim ethyl-4-[5-(3-methyl-5-{[4-(trifluoromethyl)pyrimidin-2-yl]amino}phenyl)-1,3-thiazol-2-yl]cyclohexanecarboxamide] was below 100 nM.
With `Cc1cc(Nc2nccc(C(F)(F)F)n2)cc(-c2cnc(C3(O)CCNC(=O)CC3O)s2)c1` (single isomer, unassigned) [161(D), 4,5-dihydroxy-5-[5-(3-methyl-5-{[4-(trifluoromethyl)pyrimidin-2-yl]amino}phenyl)-1,3-thiazol-2-yl]azepan-2-one], the IC50 is below 100 nM.

Still in this test, the particulars now being: read-out: rhSYK Activity; Table 10, Formula A.
With `Cc1cc(Nc2nccc(C(C)C)n2)cc(-c2cnc(C3(O)CCNC(=O)CC3)s2)c1` (single isomer, unassigned) [Example 10A-3], the IC50 is below 100 nM.

The test is the same for the next values; noted with them: read-out: rhSYK Activity; Table 33-A.
For `Cc1cc(Nc2ncc(Cl)cn2)cc(-c2cnc(C3(O)CCC(C(=O)O)C(C)(C)C3)s2)c1` (single isomer, unassigned) [Example 33A-44], the IC50 is below 100 nM.
Same read-out and setting: the value for `COC(=O)C1CCC(O)(c2ncc(-c3cc(CO)cc(Nc4nccc(C(F)(F)F)n4)c3)s2)CC1(C)C` (single isomer, unassigned) [Example 33A-52] was below 100 nM; that for `CC1(C)CC(O)(c2ncc(-c3cc(Nc4nccc(C(F)(F)F)n4)cc(C(F)F)c3)s2)CCC1C(=O)O` (single isomer, unassigned) [Example 33A-58] was below 100 nM.
The same measure, in the same setting: the value for `CC1(C)CC(O)(c2ncc(-c3cc(F)cc(Nc4nccc(C(F)(F)F)n4)c3)s2)CCC1C(=O)O` (single isomer, unassigned) [Example 33A-64] was below 100 nM; that for `CC1(C)CC(O)(c2ncc(-c3cccc(Nc4nccc(C(F)(F)F)n4)c3)s2)CCC1C(=O)O` (single isomer, unassigned) [Example 33A-67] was below 100 nM; that for `COc1ccnc(Nc2cc(C)cc(-c3cnc(C4(O)CCC(C(=O)O)C(C)(C)C4)s3)c2)n1` (single isomer, unassigned) [Example 33A-73] was below 100 nM.
Still for that read-out and setting: the value for `Cc1cc(Nc2nccc(C(F)(F)F)n2)cc(-c2cnc(C3(O)CCC(C(=O)O)C(C)(C)C3C)s2)c1` (single isomer, unassigned) [Example 33A-78] was below 100 nM.

Still in this test, the particulars now being: read-out: rhSYK Activity; Table 33B.
`Cc1cc(Nc2nccc(C(F)(F)F)n2)cc(-c2cnc(C3(O)CCC(CC(=O)O)C3)s2)c1` (single isomer, unassigned) [Example 33B-26]: the IC50 is below 100 nM.
On the same count and under the same terms, the value for `Cc1cc(Nc2nccc(C(F)(F)F)n2)cc(-c2cnc(C3(O)CCC(CC(=O)O)C3)s2)c1` (single isomer, unassigned) [Example 33B-27] was below 100 nM.

Still in this test, the particulars now being: read-out: rhSYK Activity; Table 45.
As to `Cc1cc(Nc2nccc(C(F)(F)F)n2)cc(-c2cnc(C3(O)CCCN(C(=O)OC(C)(C)C)CC3)s2)c1` (single isomer, unassigned) [45-2], the IC50 was 100 to 1000 nM.
